# According to publication PMC6421522, “Designing Dual Inhibitors of Anaplastic Lymphoma Kinase (ALK) and Bromodomain-4 (BRD4) by Tuning Kinase Selectivity” (Journal of Medicinal Chemistry, 2019):
# Columns and labels:
# Experiment in all cases: KINOMEscan scanEDGE
# Type in all cases: binding
# Conditions in all cases: read-out: % Control (1µM)
# FLT3 = molecular target: T1, FLT3 (Homo sapiens, UniProt P36888)
# T1 construct: purchased DiscoveRx KINOMEscan (scanEDGE); Thermo Fisher SelectScreen (Z'-LYTE) for PLK-1
# Method: (§1) Compound X was assayed at 1 μM in the DiscoveRx KINOMEscan (scanEDGE) assay platform. The results for single-concentration binding interactions are reported as “%Ctrl” (DMSO = 100%Ctrl), where lower numbers indicate stronger hits.
# AKT2 = molecular target: T2, AKT2 (Homo sapiens, UniProt P31751)
# T2 construct: purchased DiscoveRx KINOMEscan (scanEDGE); Thermo Fisher SelectScreen (Z'-LYTE) for PLK-1
# Method: as §1
# [1] = molecular target: T3, ABL1(E255K)-phosphorylated (Homo sapiens, UniProt P00519, E255K)
# T3 construct: purchased DiscoveRx KINOMEscan (scanEDGE); Thermo Fisher SelectScreen (Z'-LYTE) for PLK-1
# Method: as §1
# MET = molecular target: T4, MET (Homo sapiens, UniProt P08581)
# T4 construct: purchased DiscoveRx KINOMEscan (scanEDGE); Thermo Fisher SelectScreen (Z'-LYTE) for PLK-1
# Method: as §1
# TGFBR1 = molecular target: T5, TGFBR1 (Homo sapiens, UniProt P36897)
# T5 construct: purchased DiscoveRx KINOMEscan (scanEDGE); Thermo Fisher SelectScreen (Z'-LYTE) for PLK-1
# Method: as §1
# CDK7 = molecular target: T6, CDK7 (Homo sapiens, UniProt P50613)
# T6 construct: purchased DiscoveRx KINOMEscan (scanEDGE); Thermo Fisher SelectScreen (Z'-LYTE) for PLK-1
# Method: as §1
# ULK2 = molecular target: T7, ULK2 (Homo sapiens, UniProt Q8IYT8)
# T7 construct: purchased DiscoveRx (DiscoverX)
# Method: as §1
# MEK1 = molecular target: T8, MEK1 (Homo sapiens, UniProt Q02750)
# T8 construct: purchased DiscoveRx KINOMEscan (scanEDGE); Thermo Fisher SelectScreen (Z'-LYTE) for PLK-1
# Method: as §1
# AURKA = molecular target: T9, AURKA (Homo sapiens, UniProt O14965)
# T9 construct: purchased DiscoveRx KINOMEscan (scanEDGE); Thermo Fisher SelectScreen (Z'-LYTE) for PLK-1
# Method: as §1
# KIT(V559D,T670I) = molecular target: T10, KIT(V559D,T670I) (Homo sapiens, UniProt P10721, T670I/V559D)
# T10 construct: purchased DiscoveRx KINOMEscan (scanEDGE); Thermo Fisher SelectScreen (Z'-LYTE) for PLK-1
# Method: as §1
# ERK1 = molecular target: T11, ERK1 (Homo sapiens, UniProt P27361)
# T11 construct: purchased DiscoveRx KINOMEscan (scanEDGE); Thermo Fisher SelectScreen (Z'-LYTE) for PLK-1
# Method: as §1
# ERBB4 = molecular target: T12, ERBB4 (Homo sapiens, UniProt Q15303)
# T12 construct: purchased DiscoveRx KINOMEscan (scanEDGE); Thermo Fisher SelectScreen (Z'-LYTE) for PLK-1
# Method: as §1
# RAF1 = molecular target: T13, RAF1 (Homo sapiens, UniProt P04049)
# T13 construct: purchased DiscoveRx KINOMEscan (scanEDGE); Thermo Fisher SelectScreen (Z'-LYTE) for PLK-1
# Method: as §1
# PDGFRA = molecular target: T14, PDGFRA (Homo sapiens, UniProt P16234)
# T14 construct: purchased DiscoveRx KINOMEscan (scanEDGE); Thermo Fisher SelectScreen (Z'-LYTE) for PLK-1
# Method: as §1
# TIE2 = molecular target: T15, TIE2 (Homo sapiens, UniProt Q02763)
# T15 construct: purchased DiscoveRx KINOMEscan (scanEDGE); Thermo Fisher SelectScreen (Z'-LYTE) for PLK-1
# Method: as §1
# PIM1 = molecular target: T16, PIM1 (Homo sapiens, UniProt P11309)
# T16 construct: purchased DiscoveRx KINOMEscan (scanEDGE); Thermo Fisher SelectScreen (Z'-LYTE) for PLK-1
# Method: as §1
# [2] = molecular target: T17, ABL1(T315I)-phosphorylated (Homo sapiens, UniProt P00519, T315I)
# T17 construct: purchased DiscoveRx KINOMEscan (scanEDGE); Thermo Fisher SelectScreen (Z'-LYTE) for PLK-1
# Method: as §1
# BMPR2 = molecular target: T18, BMPR2 (Homo sapiens, UniProt Q13873)
# T18 construct: purchased DiscoveRx KINOMEscan (scanEDGE); Thermo Fisher SelectScreen (Z'-LYTE) for PLK-1
# Method: as §1
# DCAMKL1 = molecular target: T19, DCAMKL1 (Homo sapiens, UniProt O15075)
# T19 construct: purchased DiscoveRx KINOMEscan (scanEDGE); Thermo Fisher SelectScreen (Z'-LYTE) for PLK-1
# Method: as §1
# EGFR(L858R) = molecular target: T20, EGFR(L858R) (Homo sapiens, UniProt P00533, L858R)
# T20 construct: purchased DiscoveRx KINOMEscan (scanEDGE); Thermo Fisher SelectScreen (Z'-LYTE) for PLK-1
# Method: as §1
# PCTK1 = molecular target: T21, PCTK1 (Homo sapiens, UniProt Q00536)
# T21 construct: purchased DiscoveRx KINOMEscan (scanEDGE); Thermo Fisher SelectScreen (Z'-LYTE) for PLK-1
# Method: as §1
# MEK2 = molecular target: T22, MEK2 (Homo sapiens, UniProt P36507)
# T22 construct: purchased DiscoveRx KINOMEscan (scanEDGE); Thermo Fisher SelectScreen (Z'-LYTE) for PLK-1
# Method: as §1
# KIT = molecular target: T23, KIT (Homo sapiens, UniProt P10721)
# T23 construct: purchased DiscoveRx (DiscoverX)
# Method: as §1
# PIM3 = molecular target: T24, PIM3 (Homo sapiens, UniProt Q86V86)
# T24 construct: purchased DiscoveRx KINOMEscan (scanEDGE); Thermo Fisher SelectScreen (Z'-LYTE) for PLK-1
# Method: as §1
# BTK = molecular target: T25, BTK (Homo sapiens, UniProt Q06187)
# T25 construct: purchased DiscoveRx KINOMEscan (scanEDGE); Thermo Fisher SelectScreen (Z'-LYTE) for PLK-1
# Method: as §1
# IKK-alpha = molecular target: T26, IKK-alpha (Homo sapiens, UniProt O15111)
# T26 construct: purchased DiscoveRx KINOMEscan (scanEDGE); Thermo Fisher SelectScreen (Z'-LYTE) for PLK-1
# Method: as §1
# MAP3K4 = molecular target: T27, MAP3K4 (Homo sapiens, UniProt Q9Y6R4)
# T27 construct: purchased DiscoveRx KINOMEscan (scanEDGE); Thermo Fisher SelectScreen (Z'-LYTE) for PLK-1
# Method: as §1
# CDK2 = molecular target: T28, CDK2 (Homo sapiens, UniProt P24941)
# T28 construct: purchased DiscoveRx KINOMEscan (scanEDGE); Thermo Fisher SelectScreen (Z'-LYTE) for PLK-1
# Method: as §1
# RET = molecular target: T29, RET (Homo sapiens, UniProt P07949)
# T29 construct: purchased DiscoveRx KINOMEscan (scanEDGE); Thermo Fisher SelectScreen (Z'-LYTE) for PLK-1
# Method: as §1
# MAPKAPK2 = molecular target: T30, MAPKAPK2 (Homo sapiens, UniProt P49137)
# T30 construct: purchased DiscoveRx KINOMEscan (scanEDGE); Thermo Fisher SelectScreen (Z'-LYTE) for PLK-1
# Method: as §1
# PIM2 = molecular target: T31, PIM2 (Homo sapiens, UniProt Q9P1W9)
# T31 construct: purchased DiscoveRx KINOMEscan (scanEDGE); Thermo Fisher SelectScreen (Z'-LYTE) for PLK-1
# Method: as §1
# [3] = molecular target: T32, JAK3(JH1domain-catalytic) (Homo sapiens, UniProt P52333)
# T32 construct: JAK3(JH1domain-catalytic); purchased DiscoveRx KINOMEscan (scanEDGE); Thermo Fisher SelectScreen (Z'-LYTE) for PLK-1
# Method: as §1
# CHEK1 = molecular target: T33, CHEK1 (Homo sapiens, UniProt O14757)
# T33 construct: purchased DiscoveRx KINOMEscan (scanEDGE); Thermo Fisher SelectScreen (Z'-LYTE) for PLK-1
# Method: as §1
# EPHA2 = molecular target: T34, EPHA2 (Homo sapiens, UniProt P29317)
# T34 construct: purchased DiscoveRx KINOMEscan (scanEDGE); Thermo Fisher SelectScreen (Z'-LYTE) for PLK-1
# Method: as §1
# ABL1-nonphosphorylated = molecular target: T35, ABL1-nonphosphorylated (Homo sapiens, UniProt P00519)
# T35 construct: purchased DiscoveRx KINOMEscan (scanEDGE); Thermo Fisher SelectScreen (Z'-LYTE) for PLK-1
# Method: as §1
# ABL1-phosphorylated = molecular target: T36, ABL1-phosphorylated (Homo sapiens, UniProt P00519)
# T36 construct: purchased DiscoveRx KINOMEscan (scanEDGE); Thermo Fisher SelectScreen (Z'-LYTE) for PLK-1
# Method: as §1
# PLK4 = molecular target: T37, PLK4 (Homo sapiens, UniProt O00444)
# T37 construct: purchased DiscoveRx KINOMEscan (scanEDGE); Thermo Fisher SelectScreen (Z'-LYTE) for PLK-1
# Method: as §1
# MKNK1 = molecular target: T38, MKNK1 (Homo sapiens, UniProt Q9BUB5)
# T38 construct: purchased DiscoveRx KINOMEscan (scanEDGE); Thermo Fisher SelectScreen (Z'-LYTE) for PLK-1
# Method: as §1
# IKK-beta = molecular target: T39, IKK-beta (Homo sapiens, UniProt O14920)
# T39 construct: purchased DiscoveRx KINOMEscan (scanEDGE); Thermo Fisher SelectScreen (Z'-LYTE) for PLK-1
# Method: as §1
# PRKCE = molecular target: T40, PRKCE (Homo sapiens, UniProt Q02156)
# T40 construct: purchased DiscoveRx KINOMEscan (scanEDGE); Thermo Fisher SelectScreen (Z'-LYTE) for PLK-1
# Method: as §1
# CDK11 = molecular target: T41, CDK11 (Homo sapiens, UniProt Q9BWU1)
# T41 construct: purchased DiscoveRx KINOMEscan (scanEDGE); Thermo Fisher SelectScreen (Z'-LYTE) for PLK-1
# Method: as §1
# AXL = molecular target: T42, AXL (Homo sapiens, UniProt P30530)
# T42 construct: purchased DiscoveRx KINOMEscan (scanEDGE); Thermo Fisher SelectScreen (Z'-LYTE) for PLK-1
# Method: as §1
# T27 sequence (Q9Y6R4 whole entry): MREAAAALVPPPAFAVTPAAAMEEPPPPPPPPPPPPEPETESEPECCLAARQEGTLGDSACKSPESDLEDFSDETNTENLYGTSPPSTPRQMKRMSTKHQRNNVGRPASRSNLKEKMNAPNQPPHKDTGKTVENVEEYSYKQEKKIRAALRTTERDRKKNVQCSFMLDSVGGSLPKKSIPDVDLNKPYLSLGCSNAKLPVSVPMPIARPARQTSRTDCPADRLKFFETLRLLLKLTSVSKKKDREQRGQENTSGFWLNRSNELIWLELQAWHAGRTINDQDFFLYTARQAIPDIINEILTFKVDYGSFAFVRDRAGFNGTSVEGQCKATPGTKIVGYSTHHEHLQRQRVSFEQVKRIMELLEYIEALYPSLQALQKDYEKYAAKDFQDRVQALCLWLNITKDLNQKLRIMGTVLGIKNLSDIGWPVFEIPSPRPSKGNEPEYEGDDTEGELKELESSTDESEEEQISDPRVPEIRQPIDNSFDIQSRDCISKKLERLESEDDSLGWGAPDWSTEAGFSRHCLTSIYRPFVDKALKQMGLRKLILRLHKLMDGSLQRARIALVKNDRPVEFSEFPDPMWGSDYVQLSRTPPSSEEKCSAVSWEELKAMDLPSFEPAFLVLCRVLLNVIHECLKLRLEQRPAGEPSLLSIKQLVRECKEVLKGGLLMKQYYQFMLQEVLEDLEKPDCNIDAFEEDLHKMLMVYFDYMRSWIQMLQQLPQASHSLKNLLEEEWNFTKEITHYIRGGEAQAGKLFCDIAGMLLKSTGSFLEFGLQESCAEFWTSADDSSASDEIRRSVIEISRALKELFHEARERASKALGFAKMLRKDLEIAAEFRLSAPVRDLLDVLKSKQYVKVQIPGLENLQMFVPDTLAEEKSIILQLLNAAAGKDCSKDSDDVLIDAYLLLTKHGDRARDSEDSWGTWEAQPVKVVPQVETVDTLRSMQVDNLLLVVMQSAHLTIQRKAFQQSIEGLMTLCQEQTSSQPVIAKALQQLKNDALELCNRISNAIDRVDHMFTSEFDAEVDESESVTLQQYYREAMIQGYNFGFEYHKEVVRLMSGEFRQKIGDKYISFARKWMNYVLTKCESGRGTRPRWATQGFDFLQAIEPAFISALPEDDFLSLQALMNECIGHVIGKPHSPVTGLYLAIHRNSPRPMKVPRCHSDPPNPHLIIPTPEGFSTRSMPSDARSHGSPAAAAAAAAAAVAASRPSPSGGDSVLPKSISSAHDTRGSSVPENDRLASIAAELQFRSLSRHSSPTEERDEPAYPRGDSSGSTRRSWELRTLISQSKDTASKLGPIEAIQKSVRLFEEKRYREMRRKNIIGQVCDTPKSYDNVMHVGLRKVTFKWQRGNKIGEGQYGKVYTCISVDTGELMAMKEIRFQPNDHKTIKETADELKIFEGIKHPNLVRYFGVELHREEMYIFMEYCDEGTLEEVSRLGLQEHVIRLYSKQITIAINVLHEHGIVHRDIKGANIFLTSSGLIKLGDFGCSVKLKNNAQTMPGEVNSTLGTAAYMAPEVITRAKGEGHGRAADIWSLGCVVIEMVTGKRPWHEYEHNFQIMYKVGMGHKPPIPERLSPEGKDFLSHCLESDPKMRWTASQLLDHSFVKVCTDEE
# T30 sequence (P49137 whole entry): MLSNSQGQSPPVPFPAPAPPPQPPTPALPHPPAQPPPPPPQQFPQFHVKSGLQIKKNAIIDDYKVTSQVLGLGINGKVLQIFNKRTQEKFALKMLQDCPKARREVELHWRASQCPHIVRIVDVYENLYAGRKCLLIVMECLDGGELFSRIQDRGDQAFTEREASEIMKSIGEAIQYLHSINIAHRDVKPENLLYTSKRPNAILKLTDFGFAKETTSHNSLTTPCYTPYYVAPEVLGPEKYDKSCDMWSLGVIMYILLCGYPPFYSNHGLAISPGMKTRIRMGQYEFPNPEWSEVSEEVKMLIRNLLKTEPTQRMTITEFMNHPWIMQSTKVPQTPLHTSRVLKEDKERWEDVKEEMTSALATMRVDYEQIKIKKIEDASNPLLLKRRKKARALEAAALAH
# T13 sequence (P04049 whole entry): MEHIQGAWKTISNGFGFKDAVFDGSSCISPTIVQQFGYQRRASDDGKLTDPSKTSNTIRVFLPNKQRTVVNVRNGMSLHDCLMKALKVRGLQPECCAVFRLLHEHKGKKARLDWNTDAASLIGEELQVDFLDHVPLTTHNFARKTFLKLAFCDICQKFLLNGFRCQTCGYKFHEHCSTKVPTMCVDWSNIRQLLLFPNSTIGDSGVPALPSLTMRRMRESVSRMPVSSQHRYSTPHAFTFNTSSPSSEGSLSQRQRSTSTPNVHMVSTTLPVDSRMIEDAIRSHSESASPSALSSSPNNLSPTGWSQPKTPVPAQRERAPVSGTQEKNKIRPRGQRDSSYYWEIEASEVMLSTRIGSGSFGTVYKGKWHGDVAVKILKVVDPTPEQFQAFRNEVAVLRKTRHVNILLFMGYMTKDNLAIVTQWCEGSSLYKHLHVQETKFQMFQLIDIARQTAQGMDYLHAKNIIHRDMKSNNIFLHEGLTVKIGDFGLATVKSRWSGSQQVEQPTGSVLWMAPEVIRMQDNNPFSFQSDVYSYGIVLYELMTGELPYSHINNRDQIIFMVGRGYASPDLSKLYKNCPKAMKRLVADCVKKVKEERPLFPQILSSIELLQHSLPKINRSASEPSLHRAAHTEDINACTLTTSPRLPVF
# T37 sequence (O00444 whole entry): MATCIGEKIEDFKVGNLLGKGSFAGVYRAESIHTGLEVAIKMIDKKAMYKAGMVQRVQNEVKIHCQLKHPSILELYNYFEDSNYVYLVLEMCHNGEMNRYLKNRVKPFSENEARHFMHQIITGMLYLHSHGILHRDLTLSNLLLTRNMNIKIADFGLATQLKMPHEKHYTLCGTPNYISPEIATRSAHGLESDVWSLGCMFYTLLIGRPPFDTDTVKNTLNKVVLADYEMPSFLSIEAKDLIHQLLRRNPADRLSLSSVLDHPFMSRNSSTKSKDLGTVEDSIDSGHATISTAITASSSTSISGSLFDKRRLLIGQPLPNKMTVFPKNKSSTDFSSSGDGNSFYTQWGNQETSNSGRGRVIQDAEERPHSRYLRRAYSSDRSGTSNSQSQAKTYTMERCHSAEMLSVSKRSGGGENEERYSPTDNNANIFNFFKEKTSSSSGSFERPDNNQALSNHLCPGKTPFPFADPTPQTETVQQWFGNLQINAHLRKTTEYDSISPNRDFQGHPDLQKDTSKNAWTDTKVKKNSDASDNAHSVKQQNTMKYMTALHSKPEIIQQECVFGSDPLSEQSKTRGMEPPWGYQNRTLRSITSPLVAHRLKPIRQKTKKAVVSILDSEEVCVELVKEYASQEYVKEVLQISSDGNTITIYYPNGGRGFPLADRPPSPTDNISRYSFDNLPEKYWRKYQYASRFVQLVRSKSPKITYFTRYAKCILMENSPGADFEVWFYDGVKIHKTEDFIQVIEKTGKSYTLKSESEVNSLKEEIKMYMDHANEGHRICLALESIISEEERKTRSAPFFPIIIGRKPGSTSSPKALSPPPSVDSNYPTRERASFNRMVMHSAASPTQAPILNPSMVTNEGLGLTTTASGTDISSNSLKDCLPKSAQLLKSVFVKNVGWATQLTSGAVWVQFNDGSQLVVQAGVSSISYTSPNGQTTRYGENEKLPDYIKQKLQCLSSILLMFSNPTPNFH
# T31 sequence (Q9P1W9 whole entry): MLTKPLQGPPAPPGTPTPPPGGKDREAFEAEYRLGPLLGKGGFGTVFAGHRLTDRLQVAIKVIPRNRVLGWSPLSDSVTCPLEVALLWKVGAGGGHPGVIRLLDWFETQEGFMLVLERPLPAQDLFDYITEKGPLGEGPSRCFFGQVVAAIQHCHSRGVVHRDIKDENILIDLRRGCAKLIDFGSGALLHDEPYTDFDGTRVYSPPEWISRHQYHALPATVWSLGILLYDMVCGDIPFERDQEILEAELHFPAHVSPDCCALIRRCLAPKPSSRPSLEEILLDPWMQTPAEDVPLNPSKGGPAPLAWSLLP
# T18 sequence (Q13873 27-1038): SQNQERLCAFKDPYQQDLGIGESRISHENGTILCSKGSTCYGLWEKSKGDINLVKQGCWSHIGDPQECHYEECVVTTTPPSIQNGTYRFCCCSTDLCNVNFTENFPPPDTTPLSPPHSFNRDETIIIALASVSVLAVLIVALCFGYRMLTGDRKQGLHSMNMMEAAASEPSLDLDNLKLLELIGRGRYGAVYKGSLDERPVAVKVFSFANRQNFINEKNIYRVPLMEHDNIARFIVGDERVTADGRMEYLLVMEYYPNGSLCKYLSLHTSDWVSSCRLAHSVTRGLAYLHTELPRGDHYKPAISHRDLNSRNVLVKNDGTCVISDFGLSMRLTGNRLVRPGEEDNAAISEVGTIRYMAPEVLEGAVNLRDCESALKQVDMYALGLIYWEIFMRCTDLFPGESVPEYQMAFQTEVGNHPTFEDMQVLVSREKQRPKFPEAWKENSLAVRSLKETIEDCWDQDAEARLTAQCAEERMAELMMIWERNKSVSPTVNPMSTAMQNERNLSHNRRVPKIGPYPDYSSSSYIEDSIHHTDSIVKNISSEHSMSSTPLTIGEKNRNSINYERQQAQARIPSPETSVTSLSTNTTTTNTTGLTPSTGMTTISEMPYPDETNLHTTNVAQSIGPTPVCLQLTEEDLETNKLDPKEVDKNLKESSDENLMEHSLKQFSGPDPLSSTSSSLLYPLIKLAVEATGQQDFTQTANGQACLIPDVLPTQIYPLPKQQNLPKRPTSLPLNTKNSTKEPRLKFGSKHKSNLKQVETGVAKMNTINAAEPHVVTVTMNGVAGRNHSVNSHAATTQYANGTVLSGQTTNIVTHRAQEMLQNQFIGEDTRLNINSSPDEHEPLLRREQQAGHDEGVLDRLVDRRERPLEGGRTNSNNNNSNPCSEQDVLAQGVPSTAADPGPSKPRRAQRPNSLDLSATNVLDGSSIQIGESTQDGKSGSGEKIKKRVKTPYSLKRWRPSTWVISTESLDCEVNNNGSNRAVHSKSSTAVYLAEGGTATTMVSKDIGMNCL
smiles,measurement,setting,value
"CCOc1cc(C2CCN(C)CC2)ccc1Nc1ncc2c(n1)N(Cc1cc(C)cs1)[C@H](CC)C(=O)N2C [16k, (R)-2-((2-Ethoxy-4-(1-methylpiperidin-4-yl)phenyl)amino)-7-ethyl-5-methyl-8-((4-methylthiophen-2-yl)methyl)-7,8-dihydropteridin-6(5H)-one]",remaining binding at 1 µM,FLT3,100%
same,remaining binding at 1 µM,AKT2,100%
same,remaining binding at 1 µM,[1],100%
same,remaining binding at 1 µM,MET,94%
same,remaining binding at 1 µM,TGFBR1,94%
same,remaining binding at 1 µM,CDK7,88%
same,remaining binding at 1 µM,ULK2,64%
same,remaining binding at 1 µM,MEK1,100%
same,remaining binding at 1 µM,AURKA,99%
same,remaining binding at 1 µM,"KIT(V559D,T670I)",100%
same,remaining binding at 1 µM,ERK1,100%
same,remaining binding at 1 µM,ERBB4,93%
same,remaining binding at 1 µM,RAF1,100%
same,remaining binding at 1 µM,PDGFRA,96%
same,remaining binding at 1 µM,TIE2,99%
same,remaining binding at 1 µM,PIM1,97%
same,remaining binding at 1 µM,[2],71%
same,remaining binding at 1 µM,BMPR2,100%
same,remaining binding at 1 µM,DCAMKL1,100%
same,remaining binding at 1 µM,EGFR(L858R),69%
same,remaining binding at 1 µM,PCTK1,95%
same,remaining binding at 1 µM,MEK2,100%
same,remaining binding at 1 µM,KIT,100%
same,remaining binding at 1 µM,PIM3,100%
same,remaining binding at 1 µM,BTK,100%
same,remaining binding at 1 µM,IKK-alpha,97%
same,remaining binding at 1 µM,MAP3K4,92%
same,remaining binding at 1 µM,CDK2,100%
same,remaining binding at 1 µM,RET,99%
same,remaining binding at 1 µM,MAPKAPK2,100%
same,remaining binding at 1 µM,PIM2,86%
same,remaining binding at 1 µM,[3],100%
same,remaining binding at 1 µM,CHEK1,100%
same,remaining binding at 1 µM,EPHA2,100%
same,remaining binding at 1 µM,ABL1-nonphosphorylated,84%
same,remaining binding at 1 µM,ABL1-phosphorylated,100%
same,remaining binding at 1 µM,PLK4,100%
same,remaining binding at 1 µM,MKNK1,100%
same,remaining binding at 1 µM,IKK-beta,100%
same,remaining binding at 1 µM,PRKCE,100%
same,remaining binding at 1 µM,CDK11,93%
same,remaining binding at 1 µM,AXL,98%
